Measurements: patent US12601734B2, “Methods and uses of enzymatic labeling of ADP-ribose containing molecules” (THE JOHNS HOPKINS UNIVERSITY, priority 2018, dated 2026)

Tested on: HaCaT cells
Assay: ELTA labeling (32P-dATP, sequencing gel) of PAR isolated from H2O2-treated cells
Format: cell-based
Settings: HaCaT cells pre-treated with inhibitor prior to H2O2 induction of PAR (FIG. 6b)
Protocol: FIG. 6A-6B illustrates the detection of ADP-ribose length using ELTA. (a) A sequencing gel of the ELTA labeling reaction of ADP-ribose monomer (lane 1), PAR (lane 2), and of ADP-ribose monomer and polymer isolated from in vitro ADP-ribosylated PARP1 by NAD^+ in the presence of the PARP inhibitor Olaparib (lane 3), by NAD^+ for 10 min in the absence of Olaparib (lane 4) and by NAD^+ for 30 min (lane 5). As a comparison, the ADP-ribose monomer and polymer isolated from in vitro ADP-ribosylated PARP1 by NAD+ with a trace of ^32P-NAD+ in the presence of Olaparib for 30 min (lane 6), by NAD^+ for 10 min in the absence of Olaparib (lane 7) and by NAD^+ for 30 min (lane 8). (b) A sequencing gel of the ELTA labeling reaction of ADP-ribose monomer and polymer isolated from in vitro ADP-ribosylated haPARP (lane 1), from untreated cancer cells (lane 2), from cancer cells with DNA damage (lane 3), from cancer cells with DNA damage and treated with PARP inhibitor (lane 4) and from cancer cells with DNA damage and treated with PARG inhibitor (lane 5).
Next, the inventors tested whether ELTA can be used to examine PAR isolated from cells (FIG. 6b). PAR was retrieved from cells using a solid-phase extraction method that allows for the high recovery of PAR without any bias of different chain length. HaCaT cells were either untreated, H2O2-treated to induce PARylation, pre-treated with PARP inhibitor Olaparib prior to H2O2 induction of PAR, or pre-treated with inhibitor against the PAR-degrading enzyme PARG (PDD 00017273) prior to H2O2 induction of PAR. As a control, the inventors also isolated PAR from in vitro modified Herpetosiphon aurantiacus PARP (haPARP), which usually generates PAR of 2-25 mer (lane 1), using the same solid-phase extraction method. As expected, we observed significant PAR signals in H2O2-treated cell samples (FIG. 6b; lane 3), which is longer from the one isolated from haPARP (lane 1). […] Taken together, ELTA can assess the length of PAR isolated in vitro or from cells.

Row | Molecule | PAR signal isolated from cells | PAR length distribution isolated from cells
1 | O=C(c1cc(Cc2n[nH]c(=O)c3ccccc23)ccc1F)N1CCN(C(=O)C2CC2)CC1 [Olaparib] | reduced the signal to background level | 
2 | PDD 00017273 | enrichment of overall signals | stronger signals were observed at a shorter range
